In assay [1] the test system is primary human dermal fibroblasts (HDF). The assay can be described thus: Primary human dermal fibroblast (HDF) proliferation assay (2D), SRB staining. In kind it is cell-based. Here is the method:
Primary human dermal fibroblasts (HDF) were purchased from CELLnTEC, Bern. They were routinely grown in Dulbecco's modified Eagle's medium (DMEM) containing 10% FCS, 2 mM glutamine, and 100 U/ml penicillin/100 μg/ml streptomycin. Media, antibiotics, and glutamine were bought from Lonza. The cells were used at passage 10. Cells were trypsinized and seeded at 5000 cells/well in 200 μl into the inner wells of 96-well plates. The outer wells were loaded with sterile water. The cells were allowed to adhere overnight and then incubated for 72 hours at 37° C. under the following conditions: graded compound concentrations or 20 ng/ml PDGF-BB (Tonbo Biosciences # TO-21-8501-U010) in the absence or presence of different dilutions of sterile-filtered WE in medium. For negative control samples, 200 μl medium was added instead of specific stimuli. Alternatively, the cells were seeded into 384-well plates at 2500 cells/well together with test compounds or growth factors and WE or medium in a total volume of 50 μl. […]
Total cellular protein was determined as a measure of cell number by staining the fixed cells with sulforhodamine B (SRB, Sigma). […] After drying, the dye was eluted with 10 mM Tris.HCl, pH8.5, and absorbance was measured either at 550 or 492 nm for lower and higher cell densities, respectively. The average absorbance of the sample representing the day 1 starting cell number (for 96-well plates) was subtracted from the absorbance values of the WE-treated cells.
All experiments were carried out in triplicate for each sample and concentration, and means±standard deviation (SD) were used for the evaluation of the experiment. Results are expressed as percentage of control values for unstimulated cells.
For screening with WE, compound results were calculated as % proliferation of untreated and unstimulated control (=100%), and the cut-off for a positive hit was defined as % average proliferationWE+3*standard deviation, as shown in FIG. 5.
On the technique in general: In SRB staining, fixed cells bind dye roughly in proportion to their protein.

The test system of another assay is chronic wounds. The following applies: non-steroidal anti-inflammatory drug; cited from earlier work.

These results are taken from US11579141B2, “Methods for identifying a non-healing skin wound and for monitoring the healing of a skin wound” (AKRIBES BIOMEDICAL GMBH, priority 2016, dated 2023).

In the case of `CNC(=O)[C@H](Cc1c[nH]c2ccccc12)NC(=O)[C@@H](CC(=O)NO)CC(C)C` [GM6001], the “effect on the effect of wound exudate on HDF proliferation” value in assay [1] (in presence of WE #49 (highest MMP activity), FIG. 22) is listed as “partially reverses”. Moreover, the “effect on HDF proliferation” value in assay [1] (medium or WE without MMP activity, FIG. 22) is “no effect”.
For the molecule `CC(C)Cc1ccc(C(C)C(=O)O)cc1` (stereo not shown) [ibuprofen], the effectiveness in wounds result in the assay with chronic wounds is recorded as “only effective in ameliorating wound pain”.
With PDGF, the “effect on the growth inhibitory effect of wound exudate in 2D fibroblast proliferation” value in assay [1] (in presence of aggressive, non-healing WE #49, FIG. 21) is listed as “only partially reverses”.
